Converted amounts (≈) assume the structure as drawn. Like-named read-outs stand apart in the source and are kept apart here.
How the values were obtained:
Swiss mice [1] = experiment: Acute Intravenous Toxicity in Mice; conditions: mice, intravenous, 400 mg I/ml, 1 ml/min, seven day observation; 95% confidence limits 16,499-20,075
Method: (§1) The following pharmacological studies were run on the N-(2-hydroxyethyl)-2,4,6-triiodo-3,5-bis-(2-keto-L-gulonamido)benzamide prepared according to Method B (PRODUCT).
(§2) A solution of the PRODUCT was injected into the lateral tail vein of yound adult male and female Swiss mice at a rate of 1 ml/min.

in vivo [2] = conditions: mouse, in vivo, iv
Method: as §1, §2

[3] = Acute Intracisternal Neurotoxicity in Dogs; conditions: dog, in vivo; dogs, intracisternal, 244 mg I/kg; read-out: Respiratory arrest (death)
Method: (§3) Adult dogs of either sex were employed for this procedure and were briefly anesthetized with thiopentol sodium during the injection of a solution of the PRODUCT. The compound was administered into cerebrospinal fluid at the cisterna magna at varying concentrations but at a constant 0.5 ml/kg volume dose. Animals were thereafter observed for neurotoxicity with the following results: […]

dogs = experiment: Acute Intracisternal Neurotoxicity in Dogs; conditions: dog, in vivo
Method: as §3

Swiss mice [4] = experiment: Acute Intracerebral Toxicity in Mice; conditions: mice, intracerebral, 350-450 mg I/ml, seven day observation; 95% confidence limits 560-4806
Text: as §1
(§4) Employing a slightly modified version of the technique developed by Haley and McCormick (Brit. J. Pharmacol. 12: 12-15, 1957), young adult male and female Swiss mice received injections of a solution of the PRODUCT directly into lateral ventricles and brain tissue.

in vivo [5] = conditions: mouse, in vivo
Text: as §1, §4

Sprague Dawley rats = experiment: Acute Intracisternal Toxicity in Rats; conditions: rats, intracisternal, 400 mg I/ml, two day observation; 95% confidence limits 462-655
Text: as §1
(§5) A variation of the technique described by Melartin et al. (Invest. Radiol. 5: 13-21, 1970) was utilized to evaluate lethal effects of a solution of the PRODUCT after injection into cerebrospinal fluid at the cisterna magna. Young adult male and female Sprague Dawley rats were used. After dosing, the animals were housed individually and observed for immediate reactions and periodically for a two day observation period.

in vivo [6] = conditions: rat, in vivo
Text: as §1, §5

[7] = Stability in aqueous solution by tlc and lc analysis; format: physicochemical
Method: (§6) Nmr data are consistent with the assigned structure IX. The compound softens with darkening at 233°-238° and decomposes above 240°.

subarachnoid space = experiment: Radiographic visualization in rat after intracisternal injection; format: in vivo; conditions: 175 mg I/kg (37% I solution) intracisternally, 10 seconds after administration
Method: A pentobarbital-anesthetized rat (233 gm) received 175 mg I/kg (37% I solution) of the compound intracisternally.

[8] = system: vascular and urinary systems; experiment: Radiographic visualization in mouse after intravenous injection; format: in vivo; conditions: I.V.
Method: A female mouse (19 g) was anesthetized with sodium pentobarbital (60 mg/kg, i/p.).

Solubility in water = format: physicochemical
Method: as §6
Elemental analysis; Calcd for C21 H26 I3 N3 O14 (after correction for 3.58% H2 O): C, 26.29; H, 3.13; I, 39.67; N, 4.38; Found: C, 26.20; H, 3.12; N, 4.09; I, not determined.

O=C(Nc1c(I)c(NC(=O)C(=O)[C@@H](O)[C@H](O)[C@@H](O)CO)c(I)c(C(=O)NCCO)c1I)C(=O)[C@@H](O)[C@H](O)[C@@H](O)CO [IX, N-(2-Hydroxyethyl)-2,4,6-triiodo-3,5-bis-(2-keto-L-gulonamido)benzamide]
LD50 (Swiss mice [1]): 18,200 mg I/kg | LD50 at 168 h (in vivo [2]): 44200 mg/kg | mortality [3]: 50% | Minimum Convulsion Dose (dogs): > 244 mg I/kg | LD50 (Swiss mice [4]): 1,640 mg I/kg | LD50 at 168 h (in vivo [5]): 3980 mg/kg | LD50 (Sprague Dawley rats): 550 mg I/kg | LD50 at 48 h (in vivo [6]): 1340 mg/kg | stable in aqueous solution [7]: stable in aqueous solution | visualization of the subarachnoid space in the upper cervical, cisternal and basal cistern regions (subarachnoid space): good visualization of the subarachnoid space | visualization of the vascular system, whole body left lateral radiograph ([8]; female mouse, 10,000 mg I/kg (37% I solution), 5 seconds after administration): good visualization of the vascular system | images of the vascular system, posteroanterior radiograph ([8]; mouse, 30 seconds after contrast administration): good images of the vascular | images of the urinary system, posteroanterior radiograph ([8]; mouse, 5 minutes after contrast administration): good images of the vascular and urinary systems | solubility (Solubility in water; Method A product, read-out: highly water soluble): ≥ 1000 mg/mL | solubility (Solubility in water; Method B product, read-out: solubility): 1000 mg/mL (≈ 1080 mM)
